In this assay the target is human RIP1 kinase domain (2-375) (Homo sapiens (Human), UniProt Q13546). Put plainly: RIP1 kinase inhibition biochemical assay (Transcreener ADP, fluorescence polarization). The conditions noted are these: Ki app from tight-binding Morrison equation; 50 nM enzyme, 50 uM ATP, 2 hours incubation. As for the experimental part:
RIP1 Kinase Inhibition Assays (Biochemical Assay)
The compounds of the present invention were tested for their capacity to inhibit RIP1K activity as described below.
The ability of the receptor interacting protein kinase (RIPK1) to catalyze the hydrolysis of adenosine-5′-triphosphate (ATP) is monitored using the Transcreener ADP (adenosine-5′-diphosphate) assay (BellBrook Labs). Purified human RIP1 kinase domain (2-375) (50 nM) derived from a baculovirus-infected insect cell expression system is incubated with test compounds for 2 hours in 50 mM Hepes buffer (pH 7.5) containing 30 mM MgCl2, 1 mM dithiothreitol, 50 uM ATP, 0.002% Brij-35, and 0.5% dimethyl sulfoxide (DMSO). Reactions are quenched by the addition of 1× Bell Brooks Stop buffer B (20 mM Hepes (ph7.5), 40 mM ethylenediaminetetraacetic acid and 0.02% Brij-35) containing an additional 12 mM EDTA and 55 ug/mL ADP2 antibody and 4 nM ADP-AlexaFluor® 633 tracer. The tracer bound to the antibody is displaced by the ADP generated during the RIP1K reaction, which causes a decrease in fluorescence polarization that is measured by laser excitation at 633 nm with a FP microplate reader M1000. Fractional activity was plotted against test article concentration. Using Genedata Screener software (Genedata; Basel, Switzerland), the data were fit to the tight-binding apparent inhibition constant (Ki^app) Morrison equation [Williams, J. W. and Morrison, J. F. (1979) The kinetics of reversible tight-binding inhibition. Methods Enzymol 63: 437-67]. The following equation was used to calculate fractional activity and Ki^app:
[formula] where [E]T and [I]T are the total concentrations of active enzyme and test article, respectively.
Exemplary compounds of the present invention are provided in Table 1 along with their physiochemical characterization and in vitro RIP1 kinase inhibitory activity data. “Method” in the first column of each table refers to the synthetic method(s) used to prepare each compound as shown in the Examples above. In certain examples, chiral column retention times (min) are provided for certain stereoisomers. Unless otherwise specified, the stereochemistry shown in each structure represents relative configuration of a single stereoisomer, and absolute configuration (i.e., “R” and/or “S”) is arbitrarily assigned. In some embodiments, where the Method is described to include the separation of stereoisomers, a single stereoisomer of a compound of Table 1 is provided.
Background: Fluorescence polarisation rises when a labelled molecule tumbles more slowly, as on binding a larger partner.

human RIP1 kinase domain (2-375), sequence (Q13546 2-375): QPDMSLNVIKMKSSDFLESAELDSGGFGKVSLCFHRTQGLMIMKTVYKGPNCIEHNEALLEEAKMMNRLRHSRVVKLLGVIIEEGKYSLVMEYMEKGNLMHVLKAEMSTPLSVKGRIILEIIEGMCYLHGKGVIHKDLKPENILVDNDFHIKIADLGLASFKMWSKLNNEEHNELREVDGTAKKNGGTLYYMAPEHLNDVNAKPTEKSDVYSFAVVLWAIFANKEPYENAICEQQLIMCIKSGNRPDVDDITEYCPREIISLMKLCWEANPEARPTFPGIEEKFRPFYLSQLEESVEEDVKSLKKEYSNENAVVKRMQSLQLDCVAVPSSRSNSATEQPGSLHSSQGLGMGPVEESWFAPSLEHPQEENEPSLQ

In the case of `N#CC[S@+]([O-])c1nc2n(n1)[C@H](c1ccccc1Cl)C[C@@H]2F` (single isomer, unassigned) [Example 93], the Ki was 92 nM.
On to `N#CC[S@@+]([O-])c1nc2n(n1)[C@H](c1ccccc1Cl)C[C@@H]2F` (single isomer, unassigned) [Example 94], for which the Ki stood at 4 nM.
In the case of `N#CC[S@+]([O-])c1nc2n(n1)[C@H](c1ccccc1F)C[C@@H]2F` (single isomer, unassigned) [Example 95] it was 190 nM.
Compound `N#CC[S@@+]([O-])c1nc2n(n1)[C@H](c1ccccc1F)C[C@@H]2F` (single isomer, unassigned) [Example 96] had a Ki of 3 nM.
Then `N#CC[S@+]([O-])c1nc2n(n1)[C@H](c1cccc(F)c1)C[C@@H]2F` (single isomer, unassigned) [Example 97], with 190 nM; and `N#CC[S@@+]([O-])c1nc2n(n1)[C@H](c1cccc(F)c1)C[C@@H]2F` (single isomer, unassigned) [Example 98], with 3 nM; and `N#CC[S@+]([O-])c1nc2n(n1)[C@H](c1ccc(F)cc1)C[C@@H]2F` (single isomer, unassigned) [Example 99], with 530 nM.
Consider `N#CC[S@@+]([O-])c1nc2n(n1)[C@H](c1ccc(F)cc1)C[C@@H]2F` (single isomer, unassigned) [Example 100], for which the Ki stood at 3 nM.
`N#CC[S@+]([O-])c1nc2n(n1)[C@@H](c1ccccc1Cl)C[C@H]2F` (single isomer, unassigned) [Example 101] gave a Ki of 47 nM.
Then `CC(C)(C#N)S(=O)(=O)c1nc2n(n1)[C@H](c1ccccc1)C[C@@H]2F` (single isomer, unassigned) [Example 104], with 14 nM; and `CS(=O)(=O)c1nc2n(n1)[C@H](c1ccccc1)C[C@@H]2F` (single isomer, unassigned) [Example 106], with 22 nM; and `CCS(=O)(=O)c1nc2n(n1)[C@H](c1ccccc1)C[C@@H]2F` (single isomer, unassigned) [Example 108], with 11 nM.
`CC(C)S(=O)(=O)c1nc2n(n1)[C@H](c1ccccc1)C[C@@H]2F` (single isomer, unassigned) [Example 110] had a Ki of 14 nM.
Then `O=S(=O)(CC1CC1)c1nc2n(n1)[C@H](c1ccccc1)C[C@@H]2F` (single isomer, unassigned) [Example 112], with 60 nM; and `O=S(=O)(CC(F)(F)F)c1nc2n(n1)[C@H](c1ccccc1)C[C@@H]2F` (single isomer, unassigned) [Example 114], with 71 nM; and `COCS(=O)(=O)c1nc2n(n1)[C@H](c1ccccc1)C[C@@H]2F` (single isomer, unassigned) [Example 116], with 170 nM.
Regarding `O=S(=O)(c1nc2n(n1)[C@H](c1ccccc1F)C[C@@H]2F)[C@H]1CC1(F)F` (single isomer, unassigned) [Example 119], the Ki came out at 7 nM.
In the case of `O=S(=O)(c1nc2n(n1)[C@H](c1ccccc1Cl)C[C@@H]2F)[C@H]1CC1(F)F` (single isomer, unassigned) [Example 120] it was under 5 nM; in that of `O=S(=O)(c1nc2n(n1)[C@H](c1cc(F)ccc1F)C[C@@H]2F)C1CC1(F)F` (single isomer, unassigned) [Example 122], 12 nM.
Then `O=S(=O)(c1nc2n(n1)[C@H](c1ccccc1F)C[C@@H]2F)[C@@H]1CC1(F)F` (single isomer, unassigned) [Example 124], with under 5 nM.
In the case of `O=S(=O)(c1nc2n(n1)[C@H](c1ccccc1Cl)C[C@@H]2F)[C@@H]1CC1(F)F` (single isomer, unassigned) [Example 125] it was under 5 nM; in that of `O=S(=O)(c1nc2n(n1)[C@H](c1cc(F)ccc1F)C[C@@H]2F)[C@H]1CC1(F)F` (single isomer, unassigned) [Example 126], under 5 nM; in that of `O=S(=O)(c1nc2n(n1)[C@H](c1cc(F)ccc1F)C[C@@H]2F)[C@@H]1CC1(F)F` (single isomer, unassigned) [Example 127], 6 nM.
`O=S(=O)(c1nc2n(n1)[C@H](c1cccc(F)c1F)C[C@@H]2F)[C@@H]1CC1(F)F` (single isomer, unassigned) [Example 128] gave a Ki of 10 nM.
The compound `O=S(=O)(c1nc2n(n1)[C@H](c1ccccc1)C[C@@H]2F)[C@@H]1CC1(F)F` (single isomer, unassigned) [Example 131] showed a Ki of 4 nM.
In the case of `O=S(=O)(c1nc2n(n1)[C@H](c1ccccc1F)C[C@@H]2F)C(F)(F)F` (single isomer, unassigned) [Example 133] it was 4 nM; in that of `O=S(=O)(c1nc2n(n1)[C@H](c1ccccc1Cl)C[C@@H]2F)C(F)(F)F` (single isomer, unassigned) [Example 134], 3 nM; in that of `O=S(=O)(c1nc2n(n1)[C@H](c1cccc(F)c1)C[C@@H]2F)C(F)(F)F` (single isomer, unassigned) [Example 135], 4 nM.
In the case of `O=S(=O)(c1nc2n(n1)[C@H](c1cccc(F)c1F)C[C@@H]2F)C(F)(F)F` (single isomer, unassigned) [Example 136] it was under 5 nM.
Then `O=S(=O)(c1nc2n(n1)[C@H](c1ccccc1)C[C@@H]2F)C(F)(F)F` (single isomer, unassigned) [Example 137], with 4 nM.
Take `O=S(=O)(c1nc2n(n1)[C@H](c1cc(F)ccc1F)C[C@@H]2F)C(F)(F)F` (single isomer, unassigned) [Example 138]: the Ki was under 5 nM.
Consider `O=S(=O)(c1nc2n(n1)[C@H](c1c(F)cccc1F)C[C@@H]2F)C(F)(F)F` (single isomer, unassigned) [Example 139], for which the Ki was determined as 5 nM.
Then `O=S(=O)(c1nc2n(n1)[C@@H](c1cccc(F)c1F)C[C@H]2F)C(F)(F)F` (single isomer, unassigned) [Example 140], with 540 nM; and `O=S(=O)(c1nc2n(n1)[C@H](c1cccc(F)c1)C[C@@H]2F)[C@H]1C[C@@H]1F` (single isomer, unassigned) [Example 141], with under 5 nM.
Then `O=S(=O)(c1nc2n(n1)[C@H](c1cccc(F)c1)C[C@@H]2F)[C@@H]1C[C@H]1F` (single isomer, unassigned) [Example 142], with under 5 nM; and `O=S(=O)(c1nc2n(n1)[C@H](c1ccc(F)c(F)c1)C[C@@H]2F)[C@H]1C[C@@H]1F` (single isomer, unassigned) [Example 143], with 31 nM; and `O=S(=O)(c1nc2n(n1)[C@H](c1ccc(F)c(F)c1)C[C@@H]2F)[C@@H]1C[C@H]1F` (single isomer, unassigned) [Example 144], with 9 nM.
Regarding `O=S(=O)(c1nc2n(n1)[C@H](c1ccccc1)C[C@@H]2F)[C@@H]1C[C@H]1F` (single isomer, unassigned) [Example 145], the Ki came to 5 nM.
Then `O=S(=O)(c1nc2n(n1)[C@H](c1ccccc1)C[C@@H]2F)[C@H]1C[C@@H]1F` (single isomer, unassigned) [Example 146], with 4 nM; and `CC(F)(F)S(=O)(=O)c1nc2n(n1)[C@H](c1ccccc1)C[C@@H]2F` (single isomer, unassigned) [Example 149], with 16 nM; and `CC1(S(=O)(=O)c2nc3n(n2)[C@H](c2ccccc2)C[C@@H]3F)CC1` (single isomer, unassigned) [Example 150], with 21 nM.
Then `O=S(=O)(c1nc2n(n1)[C@H](c1ccccc1)C[C@@H]2F)C1(C(F)F)CC1` (single isomer, unassigned) [Example 155], with 4.8 nM.
Then `O=S(=O)(c1nc2n(n1)[C@H](c1ccccc1)C[C@@H]2F)C(F)(F)CO` (single isomer, unassigned) [Example 156], with 270 nM; and `N#CC1(S(=O)(=O)c2nc3n(n2)[C@H](c2ccccc2)C[C@@H]3F)CC1` (single isomer, unassigned) [Example 157], with 23 nM.
As to `C[C@@H](F)S(=O)(=O)c1nc2n(n1)[C@H](c1ccccc1)C[C@@H]2F` (single isomer, unassigned) [Example 159], the Ki stood at 15 nM.
For the compound `C[C@H](F)S(=O)(=O)c1nc2n(n1)[C@H](c1ccccc1)C[C@@H]2F` (single isomer, unassigned) [Example 160], the Ki worked out at 18 nM.
Then `CCCS(=O)(=O)c1nc2n(n1)[C@H](c1ccccc1)C[C@@H]2F` (single isomer, unassigned) [Example 161], with 26 nM.
